Experiment: xn = mol fraction of the nth substance listed
Conditions: 101 kPa, Liquid

CN1CCCC1=O [N-methylpyrrolidone] + Cc1ccccc1
Conditions | mass density [kg/m3] | viscosity [mPa·s]
303.15 K, x2 = 0 | 1023.47 | 1.554
303.15 K, x2 = 0.1071 | 1006.98 | 1.399
303.15 K, x2 = 0.2121 | 990.67 | 1.258
303.15 K, x2 = 0.3156 | 974.42 | 1.138
303.15 K, x2 = 0.4177 | 958.02 | 1.021
303.15 K, x2 = 0.5185 | 941.54 | 0.923
303.15 K, x2 = 0.6174 | 925 | 0.822
303.15 K, x2 = 0.7151 | 907.95 | 0.727
303.15 K, x2 = 0.8114 | 890.99 | 0.65
303.15 K, x2 = 0.9064 | 874.21 | 0.566
313.15 K, x2 = 0 | 1014.55 | 1.332
313.15 K, x2 = 0.1071 | 998.03 | 1.21
313.15 K, x2 = 0.2121 | 981.67 | 1.088
313.15 K, x2 = 0.3156 | 965.37 | 0.991
313.15 K, x2 = 0.4177 | 948.91 | 0.89
313.15 K, x2 = 0.5185 | 932.4 | 0.803
313.15 K, x2 = 0.6174 | 915.81 | 0.719
313.15 K, x2 = 0.7151 | 898.7 | 0.642
313.15 K, x2 = 0.8114 | 881.69 | 0.575
313.15 K, x2 = 0.9064 | 864.87 | 0.516
323.15 K, x2 = 0 | 1005.66 | 1.16
323.15 K, x2 = 0.1071 | 989.08 | 1.061
323.15 K, x2 = 0.2121 | 972.67 | 0.956
323.15 K, x2 = 0.3156 | 956.3 | 0.87
323.15 K, x2 = 0.4177 | 939.78 | 0.783
323.15 K, x2 = 0.5185 | 923.24 | 0.71
323.15 K, x2 = 0.6174 | 906.6 | 0.639
323.15 K, x2 = 0.7151 | 889.42 | 0.572
323.15 K, x2 = 0.8114 | 872.36 | 0.514
323.15 K, x2 = 0.9064 | 855.48 | 0.463
333.15 K, x2 = 0 | 996.71 | 1.022
333.15 K, x2 = 0.1071 | 980.08 | 0.932
333.15 K, x2 = 0.2121 | 963.63 | 0.844
333.15 K, x2 = 0.3156 | 947.17 | 0.766
333.15 K, x2 = 0.4177 | 930.61 | 0.695
333.15 K, x2 = 0.5185 | 914.01 | 0.632
333.15 K, x2 = 0.6174 | 897.3 | 0.57
333.15 K, x2 = 0.7151 | 880.06 | 0.514
333.15 K, x2 = 0.8114 | 862.94 | 0.463
333.15 K, x2 = 0.9064 | 845.99 | 0.418
343.15 K, x2 = 0 | 987.75 | 0.908
343.15 K, x2 = 0.1071 | 971.08 | 0.844
343.15 K, x2 = 0.2121 | 954.56 | 0.751
343.15 K, x2 = 0.3156 | 938.03 | 0.683
343.15 K, x2 = 0.4177 | 921.4 | 0.622
343.15 K, x2 = 0.5185 | 904.74 | 0.566
343.15 K, x2 = 0.6174 | 887.95 | 0.518
343.15 K, x2 = 0.7151 | 870.65 | 0.464
343.15 K, x2 = 0.8114 | 853.44 | 0.418
343.15 K, x2 = 0.9064 | 836.42 | 0.379
353.15 K, x2 = 0 | 978.76 | 0.8127
353.15 K, x2 = 0.1071 | 962 | 0.7651
353.15 K, x2 = 0.2121 | 945.42 | 0.6769
353.15 K, x2 = 0.3156 | 928.81 | 0.617
353.15 K, x2 = 0.4177 | 912.13 | 0.5616
353.15 K, x2 = 0.5185 | 895.4 | 0.513
353.15 K, x2 = 0.6174 | 878.51 | 0.464
353.15 K, x2 = 0.7151 | 861.11 | 0.422
353.15 K, x2 = 0.8114 | 843.83 | 0.381
353.15 K, x2 = 0.9064 | 826.71 | 0.347

Reference: the NIST ThermoML archive (doi:10.1016/j.jct.2006.06.005)
